Source: patent US20210179666A1, “CYCLIC PEPTIDES AND METHODS OF USE THEREOF” (Regents of the University of Minnesota, priority 2019, published 2021)
Where “and” joins values, the source holds several entries; their conditions need not be identical. Equal entries are not always repeated. Where two headings read alike, the source gives them in different places. Square brackets hold non-standard residues; d marks the D form. Peptide text beside a SMILES is read from it. Gly(N-(CH2)3-guanidino) = N=C(N)NCCCNCC(=O)O; Dap = NC[C@H](N)C(=O)O

Key:
mMC4R [1] = target: T1, mMC4R (Mus musculus, UniProt P56450); assay: cell-based
T1 sequence (P56450 whole entry): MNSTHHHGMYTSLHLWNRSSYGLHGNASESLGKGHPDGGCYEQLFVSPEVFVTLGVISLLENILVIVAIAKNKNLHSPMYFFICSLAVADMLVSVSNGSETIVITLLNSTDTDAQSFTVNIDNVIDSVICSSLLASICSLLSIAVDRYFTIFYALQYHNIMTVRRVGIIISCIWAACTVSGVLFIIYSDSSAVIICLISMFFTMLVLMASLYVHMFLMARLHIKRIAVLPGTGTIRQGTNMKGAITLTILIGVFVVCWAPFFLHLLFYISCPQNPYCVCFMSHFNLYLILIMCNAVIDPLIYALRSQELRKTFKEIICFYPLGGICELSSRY

mMC1R [2] = target: T2, mMC1R (Mus musculus, UniProt Q01727); assay: cAMP AlphaScreen bioassay, HEK293 cells stably expressing mMC1R; conditions: Example 2; @ 100 μM; EC50 not determinable
T2 sequence (Q01727 whole entry): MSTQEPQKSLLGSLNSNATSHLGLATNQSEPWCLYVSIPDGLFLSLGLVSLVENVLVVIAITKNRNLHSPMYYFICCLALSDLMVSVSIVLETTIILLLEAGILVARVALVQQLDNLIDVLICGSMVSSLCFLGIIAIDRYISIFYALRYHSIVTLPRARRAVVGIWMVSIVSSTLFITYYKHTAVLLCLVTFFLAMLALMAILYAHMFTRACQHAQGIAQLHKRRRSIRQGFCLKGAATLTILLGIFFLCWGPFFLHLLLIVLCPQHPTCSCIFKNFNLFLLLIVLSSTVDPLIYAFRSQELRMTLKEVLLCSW

mMC5R [3] = target: T3, mMC5R (Mus musculus, UniProt P41149); conditions: for mMC5R pA2: Example 1, antagonist, Schild analysis with NDP-MSH, ± SEM, reported herein for the first time
T3 sequence (P41149 whole entry): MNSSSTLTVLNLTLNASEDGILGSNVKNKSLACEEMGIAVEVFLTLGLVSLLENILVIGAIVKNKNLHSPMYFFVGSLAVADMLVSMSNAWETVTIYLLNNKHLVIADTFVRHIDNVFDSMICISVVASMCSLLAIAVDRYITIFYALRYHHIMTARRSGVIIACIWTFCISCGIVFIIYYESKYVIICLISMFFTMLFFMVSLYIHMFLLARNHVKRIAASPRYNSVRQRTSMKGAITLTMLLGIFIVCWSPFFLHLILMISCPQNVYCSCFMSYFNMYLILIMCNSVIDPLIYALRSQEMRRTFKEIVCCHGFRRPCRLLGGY

hMC4R [4] = target: T4, hMC4R (Homo sapiens, UniProt P32245); assay: cAMP AlphaScreen bioassay, HEK293 cells stably expressing hMC4R; type: cell-based; parameters: expressed in transfected cells; conditions: for Observed Inverse Agonism?: hMC4R, cAMP; for hMC4R pA2: antagonist pA2, Schild analysis with agonist NDP-MSH, ± SEM, <5.0 = no antagonist potency up to 10,000 nM
T4 sequence (P32245 whole entry): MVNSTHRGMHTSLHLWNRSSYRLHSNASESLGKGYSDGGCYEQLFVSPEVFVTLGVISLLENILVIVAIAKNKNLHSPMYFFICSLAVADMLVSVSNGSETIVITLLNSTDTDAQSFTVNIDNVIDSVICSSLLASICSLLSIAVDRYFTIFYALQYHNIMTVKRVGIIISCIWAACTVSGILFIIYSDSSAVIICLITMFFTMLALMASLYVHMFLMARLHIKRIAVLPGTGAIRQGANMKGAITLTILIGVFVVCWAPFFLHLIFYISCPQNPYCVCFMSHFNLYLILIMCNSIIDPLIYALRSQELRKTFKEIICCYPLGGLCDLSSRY

mMC3R [5] = target: T5, mMC3R (Mus musculus, UniProt P33033); conditions: for mMC3R pA2: antagonist, Schild analysis with NDP-MSH, ± SEM
T5 sequence (P33033 whole entry): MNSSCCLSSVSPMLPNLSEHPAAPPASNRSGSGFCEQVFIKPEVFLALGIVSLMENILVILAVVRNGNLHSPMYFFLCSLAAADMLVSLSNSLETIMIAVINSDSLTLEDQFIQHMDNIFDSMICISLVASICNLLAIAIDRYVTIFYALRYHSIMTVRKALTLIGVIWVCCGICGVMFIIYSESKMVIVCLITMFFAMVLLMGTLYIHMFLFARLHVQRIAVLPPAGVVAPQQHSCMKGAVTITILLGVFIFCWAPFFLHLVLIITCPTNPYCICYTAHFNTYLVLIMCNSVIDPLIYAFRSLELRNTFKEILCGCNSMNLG

mMC5R [6] = target: T3, mMC5R; parameters: expressed in transfected cells; conditions: compounds 1 and 2, previously reported; cited from earlier work
mMC3R [7] = target: T5, mMC3R; conditions: compounds 1 and 2, previously reported, cited from earlier work; for mMC3R pA2: antagonist
mMC5R [8] = target: T3, mMC5R; assay: 125I-NDP-MSH competitive binding assay, transfected HEK293 cells, mMC5R; conditions: binding IC50 versus control 1 (Asn) or 2 (Dap)
mMC4R [9] = target: T1, mMC4R; conditions: Example 1; for mMC4R pA2: antagonist, Schild analysis with NDP-MSH, ± SEM, <5.0 = no antagonist potency up to 10,000 nM
mMC3R [10] = target: T5, mMC3R; assay: 125I-NDP-MSH competitive binding assay, transfected HEK293 cells, mMC3R; conditions: binding IC50 versus control 1 (Asn) or 2 (Dap)
hMC4R [11] = target: T4, hMC4R; assay: 125I-NDP-MSH competitive binding assay, transfected HEK293 cells, hMC4R; conditions: binding IC50 versus control 1 (Asn) or 2 (Dap)
mMC1R [12] = target: T2, mMC1R; assay: 125I-NDP-MSH competitive binding assay, transfected HEK293 cells, mMC1R; conditions: binding IC50 versus control 1 (Asn) or 2 (Dap)
mMC4R [13] = target: T1, mMC4R; assay: 125I-NDP-MSH competitive binding assay, transfected HEK293 cells, mMC4R; conditions: binding IC50 versus control 1 (Asn) or 2 (Dap)
MC5R = MC5R (Homo sapiens, UniProt P33032); conditions: chemically synthetized AgRP ligands, Yang et al. 1999, cited from earlier work
Chain of MC5R (P33032 whole entry, species assumed): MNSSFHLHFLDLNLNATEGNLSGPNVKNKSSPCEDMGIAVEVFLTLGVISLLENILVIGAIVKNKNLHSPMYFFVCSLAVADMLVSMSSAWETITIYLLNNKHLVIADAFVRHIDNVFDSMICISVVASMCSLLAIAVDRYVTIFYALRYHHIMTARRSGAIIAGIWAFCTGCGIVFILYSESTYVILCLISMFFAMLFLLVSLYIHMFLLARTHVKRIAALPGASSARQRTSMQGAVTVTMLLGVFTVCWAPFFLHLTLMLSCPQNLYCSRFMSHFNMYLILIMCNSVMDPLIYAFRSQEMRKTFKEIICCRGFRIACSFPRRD

[14] = Example 1, <5.0 = no antagonist potency up to 10,000 nM

Molecule | Observed Inverse Agonism? (hMC4R [4]) | mMC5R Fold Diff (mMC5R [8]) | mMC5R pA2 (mMC5R [3]) | mMC4R pA2 (mMC4R [9]) | mMC3R Fold Diff (mMC3R [10]) | hMC4R Fold Diff (hMC4R [11]) | hMC4R pA2 (hMC4R [4]) | mMC1R Fold Diff (mMC1R [12]) | mMC3R pA2 (mMC3R [5]; [14]) | mMC4R Fold Diff (mMC4R [13]) | further results
C[C@@H]1NC(=O)[C@H](CN)NC(=O)[C@H](Cc2ccccc2)NC(=O)[C@H](Cc2ccccc2)NC(=O)CN(CCCNC(=N)N)C(=O)[C@@H]2CCCN2C(=O)[C@H]2CCCN2C(=O)[C@H](Cc2ccccc2)NC1=O [MDE8-108-3c, c[Pro-NArg-Phe-Phe-Dap-Ala-Phe-DPro]] (cyclo([Gly(N-(CH2)3-guanidino)]FF[Dap]AF[dP]P)) |  |  |  |  |  |  |  |  |  |  | Kb (mMC4R [1]): 3160 nM
C[C@@H]1NC(=O)[C@H](CN)NC(=O)[C@H](Cc2ccccc2)NC(=O)[C@H](Cc2ccccc2)NC(=O)[C@H](CCCNC(=N)N)NC(=O)[C@@H]2CCCN2C(=O)[C@H]2CCCN2C(=O)[C@H](Cc2ccccc2)NC1=O [MDE 6-82-1c, c[Pro-Arg-Phe-Phe-Dap-Ala-Phe-DPro]] | Yes |  |  |  |  |  |  |  |  |  | mMC1R percent maximal stimulatory response (mMC1R [2]): 36% @; mMC5R pharmacology observed (Partial Agonist / Inverse Agonist) (mMC5R [3]; Example 2): Inverse; mMC5R inverse agonist, percent decrease from basal (mMC5R [3]; Example 2, basal to plateau signal, sigmoidal dose-response): −10%; mMC3R percent maximal stimulatory response (mMC3R [5]; Example 2, @ 100 μM): 20% @; mMC3R pA2 (mMC3R [5]; Example 2, <5.5 = no antagonist potency up to 10,000 nM): 6.5; mMC3R pA2 (mMC3R [5]; Example 2, <5.5 = no antagonist potency up to 10,000 nM, listed as MDE6-82-1c): 6.5 ± 0.3; mMC5R inverse agonist, percent decrease from basal (mMC5R [6]): −15%; mMC5R pharmacology observed in agonist assay (Inverse Agonist) (mMC5R [6]): Inverse; EC50 (mMC3R [7]; agonist): > 100000 nM; mMC3R pA2 (mMC3R [7]): 6.5 and 6.5 ± 0.09; mMC3R pA2 (mMC3R [7]; listed as MDE6-82-1c): 6.5-7.2
CC(C)[C@@H]1NC(=O)[C@H](CC(N)=O)NC(=O)[C@H](Cc2ccccc2)NC(=O)[C@H](Cc2ccccc2)NC(=O)[C@H](CCCNC(=N)N)NC(=O)[C@@H]2CCCN2C(=O)[C@H]2CCCN2C(=O)[C@H](Cc2ccccc2)NC1=O [ZMK 2-82, c[Pro-Arg-Phe-Phe-Asn-Val-Phe-DPro]] (cyclo(PRFFNVF[dP])) | Yes | 2 | 6.1 and 6.1 ± 0.09 | 7.2 and 7.2 ± 0.1 | 3 | 3 | 7.7 | 2 | 5.9 and 5.9 ± 0.1 | 2 | mMC4R percent maximal stimulatory response (mMC4R [9]; @ 100 μM, relative to NDP-MSH signal): 16% @; hMC4R pA2 (hMC4R [4]; listed as AMK 2-82): 7.8 ± 0.03
C[C@@H]1NC(=O)[C@H](CN)NC(=O)[C@H](Cc2ccccc2)NC(=O)[C@H](Cc2ccc(O)cc2)NC(=O)[C@H](CCCNC(=N)N)NC(=O)[C@@H]2CCCN2C(=O)[C@H]2CCCN2C(=O)[C@H](Cc2ccccc2)NC1=O [ZMK 2-112, c[Pro-Arg-Tyr-Phe-Dap-Ala-Phe-DPro]] (cyclo(PRYF[Dap]AF[dP])) | Yes | 20 | 6.5 and 6.5 ± 0.2 | 7.3 and 7.3 ± 0.1 | 9 | 100 | 7.5 and 7.5 ± 0.2 | 4 | 6.5 and 6.5 ± 0.1 | 70 | 
AgRP: agouti-related protein, endogenous MC3R and MC4R antagonist and MC4R inverse agonist | Yes |  |  |  |  |  |  |  |  |  | IC50 (MC5R; read-out: IC50, displacement of radiolabeled NDP-MSH at the MC5R): 310 nM; IC50 (MC5R; read-out: IC50, displacement of radiolabeled AgRP at the MC5R): 26 nM
